# Laboratory results as given in PMC8800111 (The Journal of Biological Chemistry, 2021).
# What was measured:
# Type in all cases: cell-based
# [1] = molecular target: proteins of U3A human fibrosarcoma cells (4462 proteins detected) (Homo sapiens, UniProt Q8N9N2); details: protein ASCC1; U3A cells
# [2] = molecular target: proteins of U3A human fibrosarcoma cells (4462 proteins detected) (Homo sapiens, UniProt Q01826); details: protein SATB1; U3A cells
# [3] = molecular target: proteins of U3A human fibrosarcoma cells (4462 proteins detected) (Homo sapiens, UniProt P50281); details: protein MMP14; U3A cells
# [4] = molecular target: proteins of U3A human fibrosarcoma cells (4462 proteins detected) (Homo sapiens, UniProt O00330); details: protein PDHX; U3A cells
# [5] = molecular target: proteins of U3A human fibrosarcoma cells (4462 proteins detected) (Homo sapiens, UniProt Q96Q89); details: protein KIF20B; U3A cells
# [6] = molecular target: proteins of U3A human fibrosarcoma cells (4462 proteins detected) (Homo sapiens, UniProt Q6GYQ0); details: protein RALGAPA1; U3A, 10 μM, 2 h
# [7] = molecular target: proteins of U3A human fibrosarcoma cells (4462 proteins detected) (Homo sapiens, UniProt P29992); details: protein GNA11; U3A cells
# proteins of U3A human fibrosarcoma cells (4462 proteins detected) (Homo sapiens, UniProt P29992), sequence (P29992 whole entry): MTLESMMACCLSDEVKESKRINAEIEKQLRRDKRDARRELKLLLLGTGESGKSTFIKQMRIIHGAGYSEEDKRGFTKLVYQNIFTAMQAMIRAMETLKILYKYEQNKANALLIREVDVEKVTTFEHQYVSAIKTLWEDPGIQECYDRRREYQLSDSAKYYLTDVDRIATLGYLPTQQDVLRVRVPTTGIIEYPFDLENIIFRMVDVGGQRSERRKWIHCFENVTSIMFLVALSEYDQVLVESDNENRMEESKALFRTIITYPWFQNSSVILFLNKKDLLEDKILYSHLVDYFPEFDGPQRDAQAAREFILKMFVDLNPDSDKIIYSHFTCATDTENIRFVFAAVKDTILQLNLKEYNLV
# [8] = molecular target: proteins of U3A human fibrosarcoma cells (4462 proteins detected) (Homo sapiens, UniProt Q9Y2K1); details: protein ZBTB1; U3A cells
# proteins of U3A human fibrosarcoma cells (4462 proteins detected) (Homo sapiens, UniProt Q9Y2K1), sequence (Q9Y2K1 whole entry): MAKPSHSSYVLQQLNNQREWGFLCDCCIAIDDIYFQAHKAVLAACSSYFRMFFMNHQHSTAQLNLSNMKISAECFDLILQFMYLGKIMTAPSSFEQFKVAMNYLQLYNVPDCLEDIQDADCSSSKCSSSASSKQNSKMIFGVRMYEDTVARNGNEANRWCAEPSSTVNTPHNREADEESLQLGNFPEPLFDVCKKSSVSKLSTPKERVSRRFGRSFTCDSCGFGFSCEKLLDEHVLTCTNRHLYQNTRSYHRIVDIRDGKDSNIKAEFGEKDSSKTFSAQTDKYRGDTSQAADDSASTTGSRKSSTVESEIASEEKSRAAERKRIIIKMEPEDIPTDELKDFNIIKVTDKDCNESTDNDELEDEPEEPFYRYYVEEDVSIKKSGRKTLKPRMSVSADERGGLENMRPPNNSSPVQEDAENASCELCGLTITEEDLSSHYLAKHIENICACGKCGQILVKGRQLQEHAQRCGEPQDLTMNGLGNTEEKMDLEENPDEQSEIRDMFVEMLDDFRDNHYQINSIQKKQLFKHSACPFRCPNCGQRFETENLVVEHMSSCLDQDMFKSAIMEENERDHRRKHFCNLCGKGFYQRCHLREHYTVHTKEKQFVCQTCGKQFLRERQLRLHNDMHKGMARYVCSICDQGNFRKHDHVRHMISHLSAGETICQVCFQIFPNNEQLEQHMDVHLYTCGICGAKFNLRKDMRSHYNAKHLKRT
# [9] = molecular target: proteins of U3A human fibrosarcoma cells (4462 proteins detected) (Homo sapiens, UniProt Q96A26); details: protein FAM162A; U3A, 10 μM, 2 h
# [10] = molecular target: proteins of U3A human fibrosarcoma cells (4462 proteins detected) (Homo sapiens, UniProt P49247); details: protein RPIA, U3A cells
# proteins of U3A human fibrosarcoma cells (4462 proteins detected) (Homo sapiens, UniProt P49247), sequence (P49247 whole entry): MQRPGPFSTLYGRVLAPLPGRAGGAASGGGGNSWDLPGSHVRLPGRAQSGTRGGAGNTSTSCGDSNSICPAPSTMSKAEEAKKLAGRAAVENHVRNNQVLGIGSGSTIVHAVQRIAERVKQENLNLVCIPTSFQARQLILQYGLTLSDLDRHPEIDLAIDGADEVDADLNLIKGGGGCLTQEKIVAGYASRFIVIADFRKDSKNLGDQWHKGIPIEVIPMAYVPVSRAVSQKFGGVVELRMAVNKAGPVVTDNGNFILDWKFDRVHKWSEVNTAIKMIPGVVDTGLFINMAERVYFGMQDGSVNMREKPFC
# [11] = molecular target: proteins of U3A human fibrosarcoma cells (4462 proteins detected) (Homo sapiens, UniProt Q9HAT2); details: protein SIAE; U3A, 10 μM, 2 h
# proteins of U3A human fibrosarcoma cells (4462 proteins detected) (Homo sapiens, UniProt Q9HAT2), sequence (Q9HAT2 24-523): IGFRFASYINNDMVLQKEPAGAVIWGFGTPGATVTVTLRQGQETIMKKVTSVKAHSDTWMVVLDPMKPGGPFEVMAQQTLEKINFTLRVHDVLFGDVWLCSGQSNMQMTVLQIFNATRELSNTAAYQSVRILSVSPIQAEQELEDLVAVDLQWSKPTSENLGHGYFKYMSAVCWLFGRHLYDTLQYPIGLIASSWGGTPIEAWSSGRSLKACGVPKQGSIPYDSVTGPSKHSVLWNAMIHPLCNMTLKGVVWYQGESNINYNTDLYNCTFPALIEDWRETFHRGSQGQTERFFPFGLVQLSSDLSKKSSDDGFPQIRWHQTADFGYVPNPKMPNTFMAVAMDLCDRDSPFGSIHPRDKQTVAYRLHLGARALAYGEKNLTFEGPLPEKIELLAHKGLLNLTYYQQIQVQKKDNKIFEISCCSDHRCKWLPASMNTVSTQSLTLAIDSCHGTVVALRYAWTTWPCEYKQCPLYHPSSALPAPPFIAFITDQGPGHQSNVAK
# [12] = molecular target: proteins of U3A human fibrosarcoma cells (4462 proteins detected) (Homo sapiens, UniProt O75116); details: protein ROCK2; U3A cells
# [13] = molecular target: proteins of U3A human fibrosarcoma cells (4462 proteins detected) (Homo sapiens, UniProt Q15149); details: protein PLEC; soluble abundance after heat, U3A cells
# [14] = molecular target: proteins of U3A human fibrosarcoma cells (4462 proteins detected) (Homo sapiens, UniProt Q7Z3E5); details: protein ARMC9; U3A, 10 μM, 2 h
# [15] = molecular target: proteins of U3A human fibrosarcoma cells (4462 proteins detected) (Homo sapiens, UniProt Q15051); details: protein IQCB1; U3A, 10 μM, 2 h
# [16] = molecular target: proteins of U3A human fibrosarcoma cells (4462 proteins detected) (Homo sapiens, UniProt O43427); details: protein FIBP; soluble abundance after heat, U3A cells
# [17] = molecular target: proteins of U3A human fibrosarcoma cells (4462 proteins detected) (Homo sapiens, UniProt Q12805); details: protein EFEMP1; U3A cells
# [18] = molecular target: proteins of U3A human fibrosarcoma cells (4462 proteins detected) (Homo sapiens, UniProt P57768); details: protein SNX16; U3A, 10 μM, 2 h
# proteins of U3A human fibrosarcoma cells (4462 proteins detected) (Homo sapiens, UniProt P57768), sequence (P57768 whole entry): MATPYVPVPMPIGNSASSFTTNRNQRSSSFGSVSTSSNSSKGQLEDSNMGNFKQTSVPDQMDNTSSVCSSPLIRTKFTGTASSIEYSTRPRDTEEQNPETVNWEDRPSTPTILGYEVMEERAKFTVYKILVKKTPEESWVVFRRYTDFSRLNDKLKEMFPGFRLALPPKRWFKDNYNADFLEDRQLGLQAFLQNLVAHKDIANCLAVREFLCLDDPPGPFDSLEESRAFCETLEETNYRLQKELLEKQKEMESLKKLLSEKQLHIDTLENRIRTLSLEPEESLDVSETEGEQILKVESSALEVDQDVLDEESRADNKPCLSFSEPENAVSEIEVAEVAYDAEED
# [19] = molecular target: proteins of U3A human fibrosarcoma cells (4462 proteins detected) (Homo sapiens, UniProt Q9HCN4); details: protein GPN1; soluble abundance after heat, U3A cells
# [20] = molecular target: proteins of U3A human fibrosarcoma cells (4462 proteins detected) (Homo sapiens, UniProt Q9BUL8); details: protein PDCD10; soluble abundance after heat, U3A cells
# proteins of U3A human fibrosarcoma cells (4462 proteins detected) (Homo sapiens, UniProt Q9BUL8), sequence (Q9BUL8 whole entry): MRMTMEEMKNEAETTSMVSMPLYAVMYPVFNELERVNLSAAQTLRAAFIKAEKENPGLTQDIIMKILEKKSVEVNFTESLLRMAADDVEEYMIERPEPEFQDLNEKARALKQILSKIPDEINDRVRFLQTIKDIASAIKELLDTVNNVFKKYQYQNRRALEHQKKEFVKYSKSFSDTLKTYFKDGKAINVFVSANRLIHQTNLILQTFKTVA
# [21] = molecular target: proteins of U3A human fibrosarcoma cells (4462 proteins detected) (Homo sapiens, UniProt O75643); details: protein SNRNP200; soluble abundance after heat, U3A cells
# [22] = molecular target: proteins of U3A human fibrosarcoma cells (4462 proteins detected) (Homo sapiens, UniProt Q8IXK0); details: protein PHC2; U3A cells
# [23] = molecular target: proteins of U3A human fibrosarcoma cells (4462 proteins detected) (Homo sapiens, UniProt Q92692); details: protein PVRL2; U3A cells
# proteins of U3A human fibrosarcoma cells (4462 proteins detected) (Homo sapiens, UniProt Q92692), sequence (Q92692 32-538): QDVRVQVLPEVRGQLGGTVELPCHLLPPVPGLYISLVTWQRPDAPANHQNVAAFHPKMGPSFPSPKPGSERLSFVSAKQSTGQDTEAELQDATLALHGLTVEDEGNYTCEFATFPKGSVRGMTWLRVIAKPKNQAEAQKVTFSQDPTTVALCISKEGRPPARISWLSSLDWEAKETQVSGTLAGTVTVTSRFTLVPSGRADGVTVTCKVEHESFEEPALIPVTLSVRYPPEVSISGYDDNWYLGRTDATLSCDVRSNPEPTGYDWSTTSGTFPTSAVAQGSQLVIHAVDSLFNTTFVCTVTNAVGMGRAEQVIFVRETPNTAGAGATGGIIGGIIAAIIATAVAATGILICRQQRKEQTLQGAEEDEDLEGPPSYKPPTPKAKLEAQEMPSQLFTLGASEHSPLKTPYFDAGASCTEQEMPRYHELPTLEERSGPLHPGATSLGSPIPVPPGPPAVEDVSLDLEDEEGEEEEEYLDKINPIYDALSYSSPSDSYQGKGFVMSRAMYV
# [24] = molecular target: proteins of U3A human fibrosarcoma cells (4462 proteins detected) (Homo sapiens, UniProt P49368); details: protein CCT3; U3A cells
# proteins of U3A human fibrosarcoma cells (4462 proteins detected) (Homo sapiens, UniProt P49368), sequence (P49368 whole entry): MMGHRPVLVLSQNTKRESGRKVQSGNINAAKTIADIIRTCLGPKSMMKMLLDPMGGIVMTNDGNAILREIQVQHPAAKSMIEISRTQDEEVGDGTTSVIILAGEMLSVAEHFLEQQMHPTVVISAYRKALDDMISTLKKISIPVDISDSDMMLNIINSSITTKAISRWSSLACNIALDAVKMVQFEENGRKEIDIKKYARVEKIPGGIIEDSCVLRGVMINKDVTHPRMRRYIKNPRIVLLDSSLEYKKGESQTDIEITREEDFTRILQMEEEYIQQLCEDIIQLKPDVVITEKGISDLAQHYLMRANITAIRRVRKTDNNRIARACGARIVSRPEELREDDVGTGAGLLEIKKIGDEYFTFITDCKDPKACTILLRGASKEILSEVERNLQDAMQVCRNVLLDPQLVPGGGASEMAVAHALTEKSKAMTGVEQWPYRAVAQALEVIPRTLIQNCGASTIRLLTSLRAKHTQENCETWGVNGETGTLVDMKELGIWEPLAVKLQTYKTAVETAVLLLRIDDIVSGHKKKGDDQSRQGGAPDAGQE
# [25] = molecular target: proteins of U3A human fibrosarcoma cells (4462 proteins detected) (Homo sapiens, UniProt Q7Z4W1); details: protein DCXR; soluble abundance after heat, U3A cells
# proteins of U3A human fibrosarcoma cells (4462 proteins detected) (Homo sapiens, UniProt Q7Z4W1), sequence (Q7Z4W1 whole entry): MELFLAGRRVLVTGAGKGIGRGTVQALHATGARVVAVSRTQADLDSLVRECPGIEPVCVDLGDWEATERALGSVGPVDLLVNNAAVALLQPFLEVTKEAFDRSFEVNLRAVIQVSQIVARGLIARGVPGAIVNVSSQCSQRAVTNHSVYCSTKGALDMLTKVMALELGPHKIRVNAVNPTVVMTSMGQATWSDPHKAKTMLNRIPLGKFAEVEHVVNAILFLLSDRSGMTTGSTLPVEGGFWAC
# [26] = molecular target: proteins of U3A human fibrosarcoma cells (4462 proteins detected) (Homo sapiens, UniProt Q12905); details: protein ILF2; U3A cells
# proteins of U3A human fibrosarcoma cells (4462 proteins detected) (Homo sapiens, UniProt Q12905), sequence (Q12905 whole entry): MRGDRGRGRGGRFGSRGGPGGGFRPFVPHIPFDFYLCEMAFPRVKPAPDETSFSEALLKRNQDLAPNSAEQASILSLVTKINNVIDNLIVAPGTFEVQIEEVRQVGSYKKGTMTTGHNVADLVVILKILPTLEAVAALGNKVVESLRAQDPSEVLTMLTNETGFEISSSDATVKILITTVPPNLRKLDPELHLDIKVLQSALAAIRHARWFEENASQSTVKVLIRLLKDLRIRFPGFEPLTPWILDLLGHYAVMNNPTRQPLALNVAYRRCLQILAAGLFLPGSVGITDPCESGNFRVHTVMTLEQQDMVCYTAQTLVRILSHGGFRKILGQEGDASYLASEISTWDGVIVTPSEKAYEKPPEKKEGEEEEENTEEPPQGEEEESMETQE
# [27] = molecular target: proteins of U3A human fibrosarcoma cells (4462 proteins detected) (Homo sapiens, UniProt Q9UL16); details: protein CFAP45, U3A cells
# proteins of U3A human fibrosarcoma cells (4462 proteins detected) (Homo sapiens, UniProt Q9UL16), sequence (Q9UL16 whole entry): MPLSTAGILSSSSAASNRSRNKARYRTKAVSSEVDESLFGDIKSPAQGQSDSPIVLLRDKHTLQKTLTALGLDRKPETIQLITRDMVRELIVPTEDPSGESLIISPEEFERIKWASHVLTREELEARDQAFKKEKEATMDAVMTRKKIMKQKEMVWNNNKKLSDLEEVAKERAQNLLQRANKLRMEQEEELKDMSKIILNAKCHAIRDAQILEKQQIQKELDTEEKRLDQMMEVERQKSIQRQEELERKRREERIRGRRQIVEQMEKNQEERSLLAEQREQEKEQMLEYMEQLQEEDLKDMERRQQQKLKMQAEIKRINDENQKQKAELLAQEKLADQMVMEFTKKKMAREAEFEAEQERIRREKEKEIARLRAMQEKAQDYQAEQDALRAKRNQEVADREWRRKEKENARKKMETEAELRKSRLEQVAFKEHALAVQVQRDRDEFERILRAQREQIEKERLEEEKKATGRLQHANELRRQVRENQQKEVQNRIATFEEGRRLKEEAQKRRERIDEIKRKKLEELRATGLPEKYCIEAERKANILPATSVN
# [28] = molecular target: proteins of U3A human fibrosarcoma cells (4462 proteins detected) (Homo sapiens, UniProt O95292); details: protein VAPB; U3A cells
# proteins of U3A human fibrosarcoma cells (4462 proteins detected) (Homo sapiens, UniProt O95292), sequence (O95292 whole entry): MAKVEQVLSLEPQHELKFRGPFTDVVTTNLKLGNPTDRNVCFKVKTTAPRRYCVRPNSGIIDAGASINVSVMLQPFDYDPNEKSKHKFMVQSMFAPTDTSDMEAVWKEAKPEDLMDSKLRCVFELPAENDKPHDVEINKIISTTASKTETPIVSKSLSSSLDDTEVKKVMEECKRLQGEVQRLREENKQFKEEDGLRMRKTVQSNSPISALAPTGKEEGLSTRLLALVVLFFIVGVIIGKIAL
# [29] = molecular target: proteins of U3A human fibrosarcoma cells (4462 proteins detected) (Homo sapiens, UniProt P29317); details: protein EPHA2; soluble abundance after heat, U3A cells
structure (smiles),measurement,setting,value
CCc1nc(N)nc(N)c1-c1ccc(Cl)cc1 [pyrimethamine],Log2 (PYR/DMSO),[1],0.19
same,Log2 (PYR/DMSO),[2],0.21
same,Log2 (PYR/DMSO),[3],0.19
same,Log2 (PYR/DMSO),[4],0.19
same,Log2 (PYR/DMSO),[5],0.23
same,"Log2 (PYR/DMSO), RALGAPA1",[6],-0.50
same,Log2 (PYR/DMSO),[7],0.16
same,Log2 (PYR/DMSO),[8],0.22
same,"Log2 (PYR/DMSO), FAM162A",[9],-0.37
same,Log2 (PYR/DMSO),[10],-0.05
same,"Log2 (PYR/DMSO), SIAE",[11],0.34
same,Log2 (PYR/DMSO),[12],0.17
same,Log2 (PYR/DMSO),[13],0.14
same,"Log2 (PYR/DMSO), ARMC9",[14],-0.15
same,"Log2 (PYR/DMSO), IQCB1",[15],-0.16
same,Log2 (PYR/DMSO),[16],0.14
same,Log2 (PYR/DMSO),[17],0.18
same,"Log2 (PYR/DMSO), SNX16",[18],-0.18
same,Log2 (PYR/DMSO),[19],0.15
same,Log2 (PYR/DMSO),[20],0.15
same,Log2 (PYR/DMSO),[21],0.15
same,Log2 (PYR/DMSO),[22],0.16
same,Log2 (PYR/DMSO),[23],0.17
same,Log2 (PYR/DMSO),[24],0.17
same,Log2 (PYR/DMSO),[25],0.14
same,Log2 (PYR/DMSO),[26],0.18
same,Log2 (PYR/DMSO),[27],-0.04
same,Log2 (PYR/DMSO),[28],0.19
same,Log2 (PYR/DMSO),[29],0.15
